Assay results published in US10647680B2, “Urea compound, preparation method therefor and medical use thereof” (Ancureall Pharmaceutical (Shanghai) Co., Ltd., priority 2016, dated 2020).

Key:
[1] = test system: A431 (EGFR WT, amplification and high expression); test: In vitro growth inhibition (GI50), A431; assay type: cell-based; conditions: Homo sapiens, A-431
Description: Tumor cell line is an effective cell model for studying the inhibition of tumor cell growth or proliferation in vitro. In the present invention, a representative tumor cell line was selected to determine the cell growth inhibition activity of the present compound. All cell lines used were from ATCC, DSMZ, and the Cell Bank of the Chinese Academy of Sciences. Cell culture conditions and methods were in accordance with the requirements of each cell line. Cells were subcultured in vitro for no more than 3 passages each time, and as required, single-clone purification and identification of cell lines could be carried out.
The cell culture media used were RPMI1640 (Gibco), MEM (Gibco), McCOY'S5A (Gibco), and IMDM (Gibco). The complete medium was prepared by supplement with 5˜20% fetal calf serum (Gibco), 1% double-antibiotics (10000 units/mL penicillin and 10000 units/mL), 2 mM glutamine or 1 mM sodium pyruvate, respectively.
(§1) Human epidermal cancer cell line A431 (EGFR WT, amplification and high expression, from Shanghai Cell Bank of Chinese Academy of Sciences and ATCC), human lung cancer cell line NCI-H292 (EGFR WT, purchased from Shanghai Cell Bank of Chinese Academy of Sciences), NSCLC cell lines PC-9 and HCC827 (EGFR exon19 E746-A750 deletion, two cell lines are sensitive to the first-generation EGFR PTK inhibitor), NSCLC cell line NCI-H1975 (EGFR L858R/T790M and the first-generation EGFR inhibitor resistance, ATCC) were cultured with 1×RPMI1640 complete medium (supplement with 10% FBS), respectively.
(§2) Adherent cells were digested with 0.25% pancreatin-EDTA (Gibco). The suspension cells were collected by centrifugation. The supernatant was discarded and the cell pellet was resuspended and counted. Different cell concentrations (5˜10×10^4 cells/mL) were prepared according to the growth cycle of each cell line and then seeded on a 96-well plate (Corning), 100 μL/well. The cells were incubated overnight at 37° C., 5% CO2. The compounds were added to the cells on the second day with 2 wells in parallel. The final concentration of organic solvent shall not exceed 1%. The cells were continually incubated for 3 to 5 days, and then subjected to MTT assay.
(§3) The compound of the present invention and the control compound were dissolved in DMSO (Sigma) respectively, with the purity of more than 98%. The compound was stored in a concentration of 10 mM at −20° C. and diluted to 2- or 10-fold series prior to use.
Dojindo CCK8 reagent kit was used as MTT assay. THERMO […] FC meter was used as microplate reader.
For adherent cells, culture medium was removed and immediately replaced with the fresh prepared medium which contains 10% CCK8 reagent (100 μL/well). For the suspension cells, CCK8 was directly added to 10% of the final concentration. The cells were continually incubated for 1˜4 h. When a dark yellow color could be observed in the solvent control wells, the absorbance value at OD450 nm was measured and the cell growth rate was calculated according to the following formula: Cell Growth Rate (%)=100*(T−T0)/(C−T0) T=optical density of drug treatment cell well—optical density of blank control well; T0=optical density of cell well before drug treatment—optical density of blank control well; C=optical density of cell well of solvent control group—optical density of blank control well. The concentration value of 50% inhibition of cell growth (GI50) was calculated according to the drug concentration and cell growth rate curve. The experiment was independently repeated 1˜3 times, and subject to biological statistical analysis. 4. Experimental Results
Tumor cell growth inhibition test was performed by selecting representative compounds (compounds 4, 11, 12, 16, 27, 68, 71, 77, 79, 89 and 116 of the present invention). The initial concentration of the compound was 5,000 nM, then it was serially diluted by 2-fold or 10-fold to 0.01 nM. The GI50 value of each test compound was calculated according to the GI50 assay and calculation method. […]

[2] = test system: tumor cells with abnormal expressions of EGFR, HER2/ERBB2, FGFR1, RAS, BRAF, cMET, and ALK genes; test: In vitro growth inhibition of different tumor cells (summary over the panel); assay type: cell-based, human; conditions: GI50 value in the micro-molar range
Description: as §1
Human gastric cancer cell line NCI-N87 (HER2/ErbB2 amp, ATCC), human breast cancer cell line HCC1954 (HER2/ErbB2 amp, ATCC) and ZR-75-30 (HER2/ErbB2 amp, ATCC), human adenocarcinoma cell line AU565 (HER2/ErbB2 amp, ATCC), human lung squamous cell carcinoma cell line NCI-H2170 (HER2/ErbB2 amp, ATCC), human bronchioalveolar adenocarcinoma cell line NCI-H1781 (HER2/ErbB2 Ins G776V,C mutant type, ATCC) were cultured with a 1×RPMI1640 complete medium (10% FBS), respectively. Human lung adenocarcinoma cell line Calu-3 (HER2/ErbB2 amp, ATCC) was cultured with 1×MEM, 10% FBS, 1% double antibody, 1% NEAA (Gibco), 2 mM glutamine and 1 mM sodium pyruvate. The human breast cancer cell line SK-BR-3 (HER2/ErbB2 amp, ATCC) was cultured with a McCOY'S5A complete medium (10% FBS).
The human gastric cancer cell line MKN-45 (c-MET amp, ATCC) and the non-small cell lung cancer cell line NCI-H1993 (c-MET amp, ATCC) were cultured in complete medium comprising 1×RPMI1640 and 10% FBS, respectively.
Human non-small cell lung cancer cell line NCI-H2228 (expressing EML4-ALK fusion gene, ATCC) and human anaplastic large cell lymphoma cell line Karpas-299 (expressing NPM-ALK fusion gene, ATCC) were cultured in complete medium comprising 1×RPMI1640 (10% FBS), respectively. Neuroblastoma cell line SH-SY5Y (expressing ALK F1174L mutant protein, Shanghai Cell Bank, Chinese Academy of Sciences) was cultured in MEM complete medium (1×MEM, 10% FBS, 1% NEAA, 1 mM sodium pyruvate).
Human non-small cell lung cancer cell NCI-H1581 (FGFR1 amp, ATCC) is an FGFR1 gene amplified/overexpressed tumor cell line. It was cultured in complete medium comprising 1×RPMI1640 with 10% FBS.
Human large cell lung cancer cell NCI-H460 (KRAS […] mutant type, ATCC), human non-small cell lung cancer cell line H1299 (NRAS Q61K mutant type, ATCC), human melanoma cell line A375 (BRAF V600E mutant type, Shanghai Cell Bank of Chinese Academy of Sciences), human colon cancer cell line HCT116 (KRAS G13D mutant type, Shanghai Cell Bank, Chinese Academy of Sciences) were cultured in a complete medium of 1×RPMI1640 (10% FBS), respectively. Human non-small cell lung cancer cells A549 (KRAS G12S mutant type, Shanghai Cell Bank, Chinese Academy of Sciences) were cultured in a complete medium of 1× Ham's supplemented with 10% FBS, 1% double antibody, and 2 mM glutamine.
as §2, §3
Dojindo CCK8 reagent kit was used as MTT assay. THERMO […] FC meter was used as microplate reader. […]

Row | Structure (SMILES) | GI50 [1] [nM] | inhibition effect on growth of tumor cells with abnormal expressions of EGFR, HER2/ERBB2, FGFR1, RAS, BRAF, cMET, and ALK genes [2]
1 | COCCOc1ccc2c(c1)ncn2-c1ccc(NC(=O)Nc2cc(C(C)(C)C)n[nH]2)cc1 [Compound 77, 1-(5-tert-butyl-2H-pyrazol-3-yl)-3-{4-[5-(2-methoxyl-ethoxyl)-benzimidazol-1-yl]-phenyl}-urea] | > 2500 | no significant inhibition effect
2 | CC(C)(C)c1cc(NC(=O)Nc2ccc(-n3cnc4cc(OCCN5CCOCC5)ccc43)cc2)no1 [Compound 16, 1-(5-tert-butyl-isoxazol-3-yl)-3-{4-[5-(2-morpholin-4-yl-ethoxyl)-benzimidazol-1-yl]-phenyl}-urea] | > 2500 | no significant inhibition effect
3 | CC(C)(C)c1cc(N)n(C(=O)Nc2ccc(-n3cnc4ccccc43)cc2)n1 [Compound 116, 5-amino-3-tert-butyl-pyrazol-1-carboxylic acid (4-benzimidazol-1-yl-phenyl)-amide] | > 2500 | no significant inhibition effect
4 | CC(C)(C)c1cc(NC(=O)Nc2ccc(-n3cnc4ccc(OCCN5CCOCC5)cc43)cc2)no1 [Compound 27, 1-(5-tert-butyl-isoxazol-3-yl)-3-{4-[6-(2morpholin-4-yl-ethoxyl)-benzimidazol-1-yl]-phenyl}-urea] | > 2500 | no significant inhibition effect

Further lines, with some results ahead:

Row | GI50 [1] [nM] | Structure (SMILES) | inhibition effect on growth of tumor cells with abnormal expressions of EGFR, HER2/ERBB2, FGFR1, RAS, BRAF, cMET, and ALK genes [2]
5 | 2000 | CC(C)(C)c1cc(NC(=O)Nc2ccc(-n3cnc4cc(OCCO)ccc43)cc2)[nH]n1 [Compound 79, 1-(5-tert-butyl-2H-pyrazol-3-yl)-3-{4-[5-(2-hydroxy-ethoxyl)-benzimidazol-1-yl]-phenyl]urea] | 
6 | > 2500 | CC(C)(C)c1cc(NC(=O)Nc2ccc(-n3cnc4cc(OCCN5CCOCC5)ccc43)cc2)[nH]n1 [Compound 89, 1-(5-tert-butyl-2H-pyrazol-3-yl)-3-{4-[5-(2-morpholin-4-yl-ethoxyl)-benzimidazol-1-yl]-phenyl}-urea] | no significant inhibition effect
7 | 1890 | CC(C)(C)c1cc(NC(=O)Nc2ccc(-n3cnc4cc(O)ccc43)cc2)no1 [Compound 4, 1-(5-tert-butyl-isoxazol-3-yl)-3-[4-(5-hydroxy-benzimidazol-1-yl)-phenyl]-urea] | 
8 | > 2500 | CC(C)(C)c1cc(NC(=O)Nc2ccc(-n3cnc4ccccc43)cc2)[nH]n1 [Compound 68, 1-(4-benzimidazol-1-yl-phenyl)-3-(5-tert-butyl-2H-pyrazol-3-yl)-urea] | no significant inhibition effect
9 | > 2500 | COc1ccc2c(c1)ncn2-c1ccc(NC(=O)Nc2cc(C(C)(C)C)n[nH]2)cc1 [Compound 71, 1-(5-tert-butyl-2H-pyrazol-3-yl)-3-[4-(5-methoxyl-benzimidazol-1-yl)-phenyl]-urea] | no significant inhibition effect
10 | 1560 | CC(C)(C)c1cc(NC(=O)Nc2ccc(-n3cnc4cc(OCCO)ccc43)cc2)no1 [Compound 11, 1-(5-tert-butyl-isoxazol-3-yl)-3-{4-[5-(2-hydroxy-ethoxyl)-benzimidazol-1-yl]-phenyl]-urea] | 
